Data reported in publication PMC7667029, “A Targeted Computational Screen of the SWEETLEAD Database Reveals FDA-Approved Compounds with Anti-Dengue Viral Activity” (mBio, 2020).
“Also recorded” adds a separate entry of the source.

How the values were obtained:
dengue virus [1] = test: Initial screening of hit compounds for anti-dengue activity in tissue culture cells (Table S1); type: cell-based; conditions: viral titer relative to vehicle, tissue culture cell lines (BHK-21 48 hpi, Fig. S1; Huh7, Fig. 2C, 3C, 4C)
Procedure: For each query molecule, the top 500 compound hits obtained from the ROCS algorithm, as ranked by the Tanimoto combo score (see Data Set S1 in the supplemental material), were manually inspected for similar chemical and structural features. They were further prioritized by factors such as a lack of known side effects, commercial availability, and the intellectual property considerations that would be needed for worldwide, inexpensive use. Fourteen candidates were tested for their effects on dengue virus growth and toxicity in BHK-21 and Huh7 cells (see Table S1 and Fig. S1 in the supplemental material).
(§1) Supplementary file : TABLE S1 Summary of hits for lead compounds ARDP0006 and ST-148 screened for anti-dengue activity in tissue culture cells. Hit compounds were tested for anti-dengue activity and cell toxicity in tissue culture cell lines. Antiviral activity is summarized as follows: −, not antiviral, with titer greater than 50% of vehicle; +, weakly antiviral, with titer between 20 and 50% of vehicle; ++, moderately antiviral, with titer between 5 and 20% of vehicle; +++, highly antiviral, with titer less than 5% of vehicle. Toxicity at these doses is represented as follows: −, nontoxic, with cell viability greater than 80% of vehicle; +, mild toxicity, with cell viability between 60 and 80% of vehicle; +++, high toxicity, with cell viability less than 60% of vehicle. Data summarized here are depicted graphically in Fig. S1 and Fig. 2C, 3C, and [4]C. The Tanimoto combo score of each hit during initial ROCS screening is indicated; higher Tanimoto combo scores are indicative of increased chemical similarity. Download Table S1, PDF file, 0.04 MB.
Supplementary file : FIG S1 Initial screening of eliminated hit compounds for anti-dengue activity in tissue culture cells. BHK-21 cells were pretreated with the compounds at the indicated concentrations for 30 min, infected with dengue virus at an MOI of 0.1 PFU/cell for 1 h, and then posttreated with compound. At 48 hpi, cellular supernatant was collected and titered by plaque assay (purple). Cell viability in uninfected cells in the presence of compounds for 48 h was measured by WST assay (gray). Both viral titer and cell viability are normalized to their relative DMSO vehicle control, N = 2. Download FIG S1, PDF file, 0.06 MB.

BHK-21 and Huh7 cells = test: Cell viability by WST assay in uninfected cells (Table S1); type: cell-based; conditions: cell viability relative to vehicle at these doses
Procedure: as §1, with “The Tanimoto combo score of each hit during initial ROCS screening is indicated; higher Tanimoto combo scores are indicative of increased chemical similarity. Download Table S1, PDF file, 0.04 MB.” left out
Supplementary file : FIG S1 Initial screening of eliminated hit compounds for anti-dengue activity in tissue culture cells. […] Cell viability in uninfected cells in the presence of compounds for 48 h was measured by WST assay (gray). […]
Mock-infected wells were used to determine cell viability in the presence of chemical compounds compared to 1% DMSO vehicle control. Cell viability was determined using the WST-1 kit (Abcam) per the manufacturer’s instructions. […]

dengue viral RNA = test: Intracellular viral RNA quantification by qRT-PCR in infected Huh7 cells; type: cell-based, dengue virus
Procedure: (§2) (A) Chemical structures and (B) ROCS overlay of ST-148 and niclosamide. […] Compound addition, viral growth, and cytotoxicity assays were performed as described in the legend to Fig. 2C. (D) Virucidal activity of compounds at the concentrations indicated was measured after 60-min incubation of drugs with virus-containing solutions at 37°C. Viral titer was quantified by plaque assay on BHK-21 cells. n = 3. Statistical significance was evaluated by one-way ANOVA with Sidak’s multiple-comparison test and indicated as follows: *, P < 0.05; **, P < 0.01; ****, P < 0.0001; ns, not significant. […] On the left, cells were pretreated for 2 h prior to infection, compounds were removed during a 1-h infection at an MOI of 0.5 PFU/cell and then readministered after removal of viral inoculum. On the right, cells were similarly infected and compounds were first introduced 4 h after starting the infection. […] (F) To test the effect of ST-148 and niclosamide on viral RNA replication, Huh7 cells were infected for 1 h at an MOI of 0.5 PFU/cell. […] Intracellular RNA was collected at the time points indicated and quantified by qRT-PCR. […] N = 4, two-way ANOVA with Dunnett’s multiple-comparison test. […] After 4 h of infection, 10 μM ST-148 or 1 μM niclosamide was added; extracellular virus was collected at 24 hpi and quantified by plaque assay.

DENV2 = test: Antiviral activity in DENV2-infected Huh7 cells, infectious virus in supernatant by plaque assay; type: cell-based, dengue virus
Procedure: FIG 2 Pyrimethamine inhibits dengue virus and NS2B/3 proteinase cleavage like ARDP0006. (A) Chemical structures and (B) ROCS overlay of ARDP0006 and pyrimethamine. […] Infectious virus in cell supernatant was quantified by plaque assay at 24 hpi (left y axis, black or red). Cell viability was measured at the same pyrimethamine doses 24 h posttreatment by WST-1 assay (right y axis, gray). Viral titer and cell viability were normalized to DMSO-treated samples. (D) Splenic titers of DENV2-infected AGB6 mice at 4 days postinfection. Mice were infected with 1 × 10^6 PFU DENV2 and treated twice daily with 20 mg/kg pyrimethamine (n = 9) or a vehicle control (n = 10). Data were analyzed by two-tailed unpaired t test. (E) Cleavage kinetics of NS2B/3/4A in the presence of 100 μM pyrimethamine. NS2B/3/4A protein was expressed in vitro and radiolabeled with [^35S]methionine, followed by treatment with 100 μM pyrimethamine or DMSO. Reaction samples were obtained over a 45-min time course, separated by SDS-PAGE, and the fraction of uncleaved proteinase precursor remaining was determined as described previously ([23]). Data from three replicates were fit using single-phase exponential decay functions, and P value was determined by comparing the rate constant, K, of the models using the extra sum-of-squares F test.
Dengue plaque assays were carried out on BHK-21 cells in 24-well plates. Cells were infected with 10-fold serial dilutions of virus, which were allowed to adsorb for at least 1 h at 37°C, and overlaid with standard cell culture medium plus 0.37% (w/vol) sodium bicarbonate and 0.8% (w/vol) Aquacide II (Millipore Calbiochem). After 7 days of incubation at 37°C, 5% CO2, cells were fixed with 5% (final) formaldehyde and stained with crystal violet for plaque enumeration.
Between 4 × 10^4 and 1 × 10^5 Huh7 cells per well were seeded into 24-well plates 1 day prior to infection. Compounds were diluted to 100× final concentration in DMSO and then further diluted 1:100 into appropriate cell culture. Unless otherwise indicated, tested compounds were present for 1 h pretreatment and readministered for posttreatment following infection. […] Media and drugs were removed from cells for infection at a multiplicity of infection (MOI) of 0.1 or 0.5 in 200 μl cold medium per well. After 1 h at 37°C, virus inoculum was removed by aspiration and replaced with medium plus compound or control. After 24-h total infection, infectious virus was quantified by plaque assay. Antiviral IC50 dose-response curves were fitted in GraphPad Prism 8 using the “[inhibitor] versus response, variable slope” function with a constraint “bottom > 0.” IC90 values are defined as the dose at which “y = (span × 0.1) + bottom.”

dengue virus [2] = test: Virucidal activity assay, 60-min incubation of drug with virus, plaque assay on BHK-21 cells; type: cell-based; conditions: 0.1 μM ST-148, 1 h at 37°C
Procedure: as §2
Compounds were diluted to 100× in DMSO, then further diluted 1:100 into phosphate-buffered saline (PBS) containing dengue virus to a final volume of 200 μl and mixed. Aliquots were taken for plaque assays immediately after addition of compounds (time [T] = 0 min) or after incubation at 37°C for 60 min (T = 60 min).

`COc1ccc2[nH]c([S+]([O-])Cc3ncc(C)c(OC)c3C)nc2c1` (stereo not shown) [Omeprazole] was tested, and the Antiviral (dengue virus [1]) was “− (not antiviral, with titer greater than 50% of vehicle)”.
In the case of `Cc1noc(NS(=O)(=O)c2ccc(N)cc2)c1C` [Sulfisoxazole], the Antiviral (dengue virus [1]) is reported as “+ (weakly antiviral, with titer between 20 and 50% of vehicle)”.
With `COc1cc2nc(N3CCN(C(=O)C4COc5ccccc5O4)CC3)nc(N)c2cc1OC` (stereo not shown) [Doxazosin] the Antiviral (dengue virus [1]) was “+ (weakly antiviral, with titer between 20 and 50% of vehicle)”.
For `COc1c2occc2cc2ccc(=O)oc12` [Methoxsalen], the Antiviral (dengue virus [1]) was “− (not antiviral, with titer greater than 50% of vehicle)”.
With `Cc1cccn2c(=O)c(-c3nnn[nH]3)cnc12` [Pemirolast] the Antiviral (dengue virus [1]) was “− (not antiviral, with titer greater than 50% of vehicle)”.
`Nc1c2c(nc3ccccc13)CCCC2O` (stereo not shown) [Hydroxy tacrine] was tested, and the Antiviral (dengue virus [1]) was “− (not antiviral, with titer greater than 50% of vehicle)”.
With `Nc1nc(N)c2nc(-c3ccccc3)c(N)nc2n1` [Triamterine] the Antiviral (dengue virus [1]) was “+++ (highly antiviral, with titer less than 5% of vehicle)” and the Toxicity (BHK-21 and Huh7 cells) was “+++ (high toxicity, with cell viability less than 60% of vehicle)”.
For `CC1=NN(c2ccc(C)c(C)c2)C(=O)/C1=N\Nc1cccc(-c2cccc(C(=O)O)c2)c1O` [Eltrombopag], the Antiviral (dengue virus [1]) was “− (not antiviral, with titer greater than 50% of vehicle)”.
In the case of `Cc1nccn1CC1CCc2c(c3ccccc3n2C)C1=O` (stereo not shown) [Ondansetron], the Antiviral (dengue virus [1]) is reported as “++ (moderately antiviral, with titer between 5 and 20% of vehicle)”.
For `Cc1c(NC(=O)c2cccnc2)c(=O)n(-c2ccccc2)n1C` [Nifenazone], the Antiviral (dengue virus [1]) was “+ (weakly antiviral, with titer between 20 and 50% of vehicle)”.
With `C[C@@]1(O)[C@H](O)[C@@H](CO)O[C@H]1n1ccc2c(N)ncnc21` [MK0608] the “Viral RNA abundance” value (dengue viral RNA; 50 μM MK0608, control for inhibited vRNA replication) was “significantly reduced vRNA load; also recorded: strongly reduced viral RNA abundance”.
For `Cc1cnc(NC(=O)C2=C(O)c3ccccc3S(=O)(=O)N2C)s1` [Meloxicam], the Antiviral (dengue virus [1]) was “− (not antiviral, with titer greater than 50% of vehicle)”.
For `Nc1c(C(=O)Nc2nnc(-c3ccccc3)s2)sc2nc3c(cc12)CCCCC3` [ST-148], the “Virion production at increased dose after entry” value (DENV2; 10 μM ST-148 or 1 μM niclosamide added after 4 h of infection, extracellular virus at 24 hpi) was “effective during later, postentry stages; also recorded: inhibited virion production”, the IC90 (DENV2; Dengue virus, Huh-7, DENV2-infected Huh7 cells, from dose-response curve fit, 24 hpi) was 5.6 µM and the IC50 (DENV2; Dengue virus, Huh-7, DENV2-infected Huh7 cells, single infectious cycle, plaque assay at 24 hpi, read-out: IC50 of viral inhibition (infectious extracellular virus)) was 0.38 µM. For the same compound, the “Viral titer on delayed addition of compound” value (DENV2; IC90 dose first added 4 h after infection, Huh7, 24 hpi) was “eliminated the observed reduction of viral titer”, the “Virucidal activity (viral infectivity after coincubation)” value (dengue virus [2]) was “significantly reduced viral infectivity” and the “Viral RNA abundance” value (dengue viral RNA; added 4 h postinfection at IC90 dose (5.6 μM ST-148, 0.66 μM niclosamide)) was “no difference in viral RNA abundance”.
